Measurements reported in patent publication US20250032460A1, “METHODS OF TREATING NEUROLOGICAL DISORDERS” (MapLight Therapeutics, Inc., priority 2021, published 2025).

Columns and labels:
[1] = test system: Compound 1 induced salivation; assay: Fesoterodine dose-response antagonistic effect on Compound 1 induced salivation in anaesthetized rats; format: in vivo, Sprague Dawley rats
Method: An in vivo primary pharmacology study evaluating the fesoterodine fumarate dose-response antagonistic effect on Compound 1 induced salivation in anaesthetized male Sprague Dawley rats was conducted. […] Intravenous fesoterodine doses were administered at […]. Fesoterodine was dosed 10 minutes prior to dosage of Compound 1. All animals were normal with no observed abnormality detected in clinical signs or behavior. Salivation was measured by using oral dry swab in anesthetized rats with the calculated difference between the dry swab weight and the wet swab weight indicating the weight of saliva produced. Samples were collected post-dosing for one hour at 10-minute intervals.

[2] = Single ascending dose study: pharmacokinetics (plasma, CSF); format: in vivo
Method: (§1) Compound 1 was administered in a single ascending dose (SAD) study conducted in approximately 54 healthy adult volunteers to investigate Compound 1 pharmacokinetics, safety, and tolerability. The study was conducted in two groups.
(§2) Group 2 evaluated tolerability of Compound 1 at Group 1 MTD with or without fesoterodine fumarate co-administration. Subjects received 8 mg of fesoterodine fumarate tablet or matched placebo tablet 4 hours prior to administration of 40 mg of Compound 1.

MPTP-Induced Dyskinesia = assay: L-dopa-induced dyskinesia in MPTP-lesioned macaques; format: in vivo, cynomolgus macaques
Description: It is now used in non-human primates to model primary parkinsonian motor symptom phenotypes and subsequent response to therapies such as L-dopa including dyskinesia-thus it can be used as foundational model for LID. See Huat 2012. (Huot P, Johnston T H, Koprich J B, Fox S H, Brotchie J M. L-DOPA pharmacokinetics in the MPTP-lesioned macaque model of Parkinson's disease. Neuropharmacology. 2012 October; 63(5):829-36.) Having both face validity and construct validity, the MPTP non-human primate model is considered the animal model of PD motor symptoms with the highest translational relevance.
A study was conducted in seven female MPTP-lesioned cynomolgus macaques that received chronic repeat treatment with L-dopa and in response manifested stable and reproducible dyskinesia that was choreic and dystonic in nature. Macaque behaviors were assessed following a single 1 mg/kg dose of Compound 1 or vehicle in combination with high-dose of L-dopa delivered as Madopar™ with a dose titrated for LID symptoms in each test animal. The ‘on time’ therapeutic effects and abnormal LID movements were assessed for 6 hours following administration of L-dopa. A single Compound 1 oral dose of 1 mg/kg or vehicle was administered at the same time as L-dopa at the start of behavioral observations. All animals received all treatments in a cross-over design with a minimum of 72 hours between repeat treatments in each animal. The therapeutic and LID behaviors were scored by trained raters supervised by a neurologist in a blinded fashion using high-definition video recordings and the non-human primate dyskinesia rating scale. See Fox 2012. (Fox S H, Johnston T H, Li Q, Brotchie J, Bezard E. A critique of available scales and presentation of the Non-Human Primate Dyskinesia Rating Scale. Mov Disord. 2012 Sep. 15; 27(11):1373-8.)

in vivo = details: cynomolgus monkey, po
Method: The following example characterized the pharmacokinetics (PK) of Compound 1 in Cynomolgus Monkey following single oral (PO) Compound 1 dose administration. The compound was administered via oral gavage at 0.3 mg/kg and 1 mg/kg, formulated as solution in saline. After dosing, plasma was collected to characterize the PK profiles of Compound 1.

[3] = Single ascending dose study with or without fesoterodine fumarate: safety and tolerability; format: in vivo, healthy adult volunteers
Method: as §1
Group 1 evaluated multiple dose cohorts administered Compound 1 in a single ascending dose (SAD) manner to establish a maximum tolerated dose (MTD) using the doses described in Table 10.
MTD was established at the dose which produced mild to moderate cholinergic adverse effects. Cholinergic effects were monitored for each dose, including pupillometry and salivation.
as §2

[4] = Plasma pharmacokinetics after single-dose intravenous administration in rats; format: in vivo, Sprague Dawley rats; details: rat, in vivo, iv, 1.5 mg/kg
Method: The plasma concentration-time profile was evaluated for fesoterodine active metabolite desfesoterodine and Compound 1 in male Sprague Dawley rats following single-dose intravenous administration of fesoterodine (0.25 mg/kg) and Compound 1 (0.5 mg/kg and 1.5 mg/kg) alone and single-dose co-administration. Plasma exposures of desfesoterodine were similar following administration of fesoterodine alone and in combination with Compound 1.

[5] = Compound 1 (1.5 mg/kg) IV alone
[6] = Group 2, 40 mg Compound 1, 8 mg fesoterodine fumarate
[7] = Compound 1 1 mg/kg PO with high-dose L-dopa, vs vehicle
[8] = Group 2: 40 mg Compound 1, 4 hours after 8 mg fesoterodine fumarate tablet or placebo tablet

Cc1noc([C@@]23CNC[C@@H]2C3)n1 [Compound 1, 1-(3-methyl-[1,2,4]oxadiazol-5-yl)-(1R,5R)-3-aza-bicyclo[3.1.0]hexane]
Salivation (mg) (mean value), 10 min [1, 5]: 414.44 mg
Salivation (mg) (mean value), 20 min [1, 5]: 126.95 mg
Salivation (mg) (mean value), 30 min [1, 5]: 59.21 mg
Salivation (mg) (mean value), 40 min [1, 5]: 61.22 mg
Salivation (mg) (mean value), 50 min [1, 5]: 24.79 mg
Salivation (mg) (mean value), 60 min [1, 5]: 22.15 mg
Salivation (mg) (mean value), Total [1, 5]: 708.76 mg
effect on salivation compared to 0.9% saline vehicle control ([1]; Compound 1 IV alone): significant effect in increase in salivation
increase in exposure of Compound 1 following co-administration of fesoterodine fumarate, AUC0-inf [2, 6]: 29.0%
increase in exposure of Compound 1 following co-administration of fesoterodine fumarate, AUC0-t [2, 6]: 30.0%
increase in exposure of Compound 1 following co-administration of fesoterodine fumarate, Cmax ([2]; Group 2, 40 mg Compound 1, 8 mg fesoterodine fumarate, p-value: 0.0347): 50.0%
compound 1 concentration in CSF at 1hour post-dose, mean ([2]; human, in vivo, 1 h): 50.30 ng/mL
mean compound 1 concentration in CSF at 1 hour post-dose ([2]; human, in vivo, 1 h): 56.96 ng/mL
Tmax ([2]; human, in vivo, single oral doses, healthy subjects, read-out: median tmax): 0.65 to 1.17 h
anti-parkinsonian benefit of L-DOPA and overall duration of on-time (MPTP-Induced Dyskinesia; Compound 1 1 mg/kg PO with high-dose L-dopa): no reduction
decrease in the duration of ‘bad’ on-time (on-time associated with disabling dyskinesia) (MPTP-Induced Dyskinesia; [7]): 41%
increase in the duration of ‘good’ on-time (lack of, or only non-disabling dyskinesia) (MPTP-Induced Dyskinesia; [7]): 143%
reduction of median levels of dyskinesia during the 0-1 h period (MPTP-Induced Dyskinesia; Compound 1 1 mg/kg PO with high-dose L-dopa, vs vehicle, P<0.001): 91%
reduction of median levels of dyskinesia cumulated over the 0-2 h period (MPTP-Induced Dyskinesia; Compound 1 1 mg/kg PO with high-dose L-dopa, vs vehicle, P=0.0156): 42%
median levels of dyskinesia during the 0-1 h period (MPTP-Induced Dyskinesia; Compound 1 1 mg/kg PO with high-dose L-dopa, vehicle 11): 1
median levels of dyskinesia cumulated over the 0-2 h period (MPTP-Induced Dyskinesia; Compound 1 1 mg/kg PO with high-dose L-dopa, vehicle 33): 19
animals with a robust reduction in LID (MPTP-Induced Dyskinesia; Compound 1 1 mg/kg PO, seven animals in final analyses): six of the seven animals
AUC(0-inf) (in vivo; 0.3 mg/kg): 212 ng·h/mL
AUC(0-t) (in vivo; 0.3 mg/kg): 208 ng·h/mL
Cmax (in vivo; 0.3 mg/kg): 216 ng/mL
Tmax (in vivo; 0.3 mg/kg): 0.417 h
half-life (in vivo; 0.3 mg/kg): 2.82 h
AUC(0-inf) (in vivo; 1 mg/kg): 988 ng·h/mL
AUC(0-t) (in vivo; 1 mg/kg): 982 ng·h/mL
Cmax (in vivo; 1 mg/kg): 686 ng/mL
Tmax (in vivo; 1 mg/kg): 1 h
half-life (in vivo; 1 mg/kg): 2.28 h
subjects who reported TEAEs ([3]; Group 1, 1 mg, placebo 50.0%): ~33.3%
subjects who reported TEAEs ([3]; Group 1, 3 mg, placebo 50.0%): About 50.0%
subjects who reported TEAEs ([3]; Group 1, 10 mg, placebo 50.0%): About 50.0%
subjects who reported TEAEs ([3]; Group 1, 20 mg, placebo 50.0%): About 50.0%
subjects who reported TEAEs ([3]; Group 1, 40 mg, placebo 50.0%): ~83.3%
subjects who reported TEAEs ([3]; Group 1, 60 mg, placebo 50.0%): ~100%
deaths, serious TEAEs, discontinuations ([3]; Group 1, 1-60 mg single oral dose): no deaths or serious TEAEs reported, and no subjects discontinued the study due to a TEAE
total treatment-emergent adverse events (TEAEs) ([3]; Group 1, 36 subjects who received any dose of compound 1 (1-60 mg single oral)): 95
subjects with TEAEs (number of the 36 subjects) ([3]; Group 1, any dose of compound 1): 22
subjects with TEAEs ([3]; Group 1, any dose of compound 1, of the 36 subjects): 61.6%
day of onset of TEAEs (Day 1 = day of dosing) [3, 8]: 1 days
deaths, serious or severe TEAEs [3, 8]: no deaths, serious or severe TEAEs reported
most frequent TEAEs observed [3, 8]: salivary hypersecretion and dizziness
number of TEAEs reported [3, 8]: 9
subjects who reported TEAEs [3, 8]: 100.0%
MTD of Compound 1 when administered alone ([3]; single oral dose, healthy subjects): 40 mg
safety and tolerability ([3]; single oral doses ranging from 1 mg to 40 mg, healthy subjects): generally safe and well tolerated
Vss as fold of total body water (0.7 L/kg) ([4]; male, Sprague Dawley): approximately 2.4 fold
plasma clearance as % of the normal liver blood flow in rats (55 mL/min/kg) ([4]; male, Sprague Dawley): approximately 50%
AUC(0-t) ([4]; male, Sprague Dawley, AUClast of Compound 1): 917 ng·h/mL
C0 ([4]; male, Sprague Dawley, C0 of Compound 1): 1520 ng/mL
clearance ([4]; male, Sprague Dawley, CL of Compound 1): 27.2 mL/min/kg
half-life ([4]; male, Sprague Dawley, T1/2 of Compound 1): 0.83 h
Vd ([4]; male, Sprague Dawley, VSS of Compound 1): 1.71 L/kg
PK parameters of Compound 1, single-agent vs co-administration with fesoterodine [4]: comparable
